# Values of other authors, collected in paper PMC4627231, “Targeting the sugar metabolism of tumors with a first-in-class 6-phosphofructo-2-kinase (PFKFB4) inhibitor” (Oncotarget, 2015).
# System: breast cancer patients
# Design: method as in PMID 25524798
# Details: cited from earlier work
compound,measurement,value
CC(=O)c1c(C)c2cnc(Nc3ccc(N4CCNCC4)cn3)nc2n(C2CCCC2)c1=O [palbociclib],progression-free survival,double
same,toxicity,without causing excessive toxicity
